Data from patent US12681015B2, “Methods for predicting patient response to DMARDs” (Queen Mary University of London, priority 2019, dated 2026).

Assays:
[1] = test system: MTX-induced upregulation of SPM in human peripheral blood; test: Human whole blood incubated with L002 or SB202190, then MTX; plasma SPM by LC-MS/MS; type: cell-based; conditions: L002 2 μM or SB202190 5 μM, then MTX 100 nM, 37° C., 45 min
Description: (§1) Plasma was collected by centrifugation and SPM were identified and quantified using LC-MS/MS based lipid mediator profiling (see methods for details). (A) sPLS-DA score plot of identified lipid mediator concentrations (B) Contribution for the top 10 differentially regulated mediators in principle component 1. Results are representative of n=6 volunteers per group with experiments conducted on two distinct occasions. (C-G) Inflammatory arthritis was initiated in mice by the administration of arthritogenic serum on days 0 and 2. […] Disease severity was assessed by measuring (C) disease activity using a 26-point clinical score, (D) joint histology using hematoxylin and eosin staining of knee sections collected 8 days post disease initiation, original magnification=×4 and (E) body weight. (F,G) Eight days post disease initiation joints were collected, (F) leukocytes were liberated from the paws and the number of neutrophils infiltrated into the paw was determined using flow cytometry and fluorescently labelled antibodies. (G) Lipid mediators were extracted and the concentrations of LTB4 were determined using liquid chromatography tandem-mass spectrometry. C, E, F are mean±SEM and G are percentage of vehicle of n=4 mice per group and experiments were conducted on two distinct occasions. Results for D are representative of n=8 mice per group. * p<0.05 vs Vehicle group for C and E using two-way ANOVA, for F one-way ANOVA, for G using one-sample t test. F=femur; m=meniscus; PF=pannus formation; T=tibia.
Plasma was obtained from peripheral blood of healthy volunteers, patients and mouse following centrifugation at 1500×g for 10 min at room temperature. Paws were collected and immediately transferred to liquid nitrogen prior to homogenization in 1 ml ice cold MeOH and homogenized using a glass dounce. All samples for LC-MS/MS-based profiling were extracted using solid-phase extraction columns as in Walker, M. E., Souza, P. R., Colas, R. A. & Dalli, J. “13-Series resolvins mediate the leukocyte-platelet actions of atorvastatin and pravastatin in inflammatory arthritis.” FASEB J 31, 3636-3648 (2017), the contents of which are incorporated herein by reference. Prior to sample extraction, deuterated internal standards, representing each region in the chromatographic analysis (500 pg each) were added to facilitate quantification. Samples were kept at −20° C. for a minimum of 45 min to allow protein precipitation. Supernatants were subjected to solid phase extraction, methyl formate fraction collected, brought to dryness and suspended in phase (methanol/water, 1:1, vol/vol) for injection on a Shimadzu LC-20AD HPLC and a Shimadzu SIL-20AC autoinjector, paired with a QTrap 5500 or QTrap 6500 plus (Sciex). […]

[2] = test system: inflammatory arthritis in mice; test: Inflammatory arthritis in mice treated with MTX plus L002 or MTX plus SB202190; type: in vivo; conditions: for anti-arthritic actions of MTX: MTX 25 mg/kg plus inhibitor 20 mg/kg i.p. days 3, 5 and 7; for weight loss, a marker of disease activity / joint inflammation / joint concentrations of LTB4 / joint damage / ability of MTX to regulate neutrophil trafficking to the inflamed joint: MTX plus inhibitor 20 mg/kg; for joint inflammation: 26-point clinical score; for joint concentrations of LTB4: day 8, LC-MS/MS; for joint damage: knee histology, day 8; for ability of MTX to regulate neutrophil trafficking to the inflamed joint: paws, day 8, flow cytometry
Description: as §1
Plasma was obtained from peripheral blood of healthy volunteers, patients and mouse following centrifugation at 1500×g for 10 min at room temperature. Paws were collected and immediately transferred to liquid nitrogen prior to homogenization in 1 ml ice cold MeOH and homogenized using a glass dounce. All samples for LC-MS/MS-based profiling were extracted using solid-phase extraction columns as in Walker, M. E., Souza, P. R., Colas, R. A. & Dalli, J. “13-Series resolvins mediate the leukocyte-platelet actions of atorvastatin and pravastatin in inflammatory arthritis.” FASEB J 31, 3636-3648 (2017), the contents of which are incorporated herein by reference. Prior to sample extraction, deuterated internal standards, representing each region in the chromatographic analysis (500 pg each) were added to facilitate quantification. Samples were kept at −20° C. for a minimum of 45 min to allow protein precipitation. Supernatants were subjected to solid phase extraction, methyl formate fraction collected, brought to dryness and suspended in phase (methanol/water, 1:1, vol/vol) for injection on a Shimadzu LC-20AD HPLC and a Shimadzu SIL-20AC autoinjector, paired with a QTrap 5500 or QTrap 6500 plus (Sciex). An Agilent Poroshell 120 EC-C18 column (100 mm×4.6 mm×2.7 μm) was kept at 50° C. and mediators eluted using a mobile phase consisting of methanol/water/acetic acid of 20:80:0.01 (vol/vol/vol) that was ramped to 50:50:0.01 (vol/vol/vol) over 0.5 min and then to 80:20:0.01 (vol/vol/vol) from 2 min to 11 min, maintained till 14.5 min and then rapidly ramped to 98:2:0.01 (vol/vol/vol) for the next 0.1 min. This was subsequently maintained at 98:2:0.01 (vol/vol/vol) for 5.4 min, and the flow rate was maintained at 0.5 ml/min. QTrap 5500 or QTrap 6500 plus were operated using a multiple reaction monitoring method as in Walker, M. E., Souza, P. R., Colas, R. A. & Dalli, J. “13-Series resolvins mediate the leukocyte-platelet actions of atorvastatin and pravastatin in inflammatory arthritis.” FASEB J 31, 3636-3648 (2017), the contents of which are incorporated herein by reference. […]

[3] = known side effect; cited from earlier work

Row | Structure (SMILES) | MTX-induced upregulation of SPM [1] | concentrations of several mediators including PD1, MaR2n-3 DPA and RvD1 [1] | anti-arthritic actions of MTX [2] | weight loss, a marker of disease activity [2] | joint inflammation [2] | joint concentrations of LTB4 [2] | joint damage [2] | ability of MTX to regulate neutrophil trafficking to the inflamed joint [2] | High blood pressure, share of people [3]
1 | Oc1ccc(-c2nc(-c3ccncc3)c(-c3ccc(F)cc3)[nH]2)cc1 [SB202190] | blocking | decreasing | reversed | increase | increase | increase | increase | reversed | 
2 | COc1ccc(S(=O)(=O)ON=C2C=C(C)C(=O)C(C)=C2)cc1 [L002] | blocking | decreasing | reversed | increase | increase | increase | increase | reversed | 
3 | Cc1oncc1C(=O)Nc1ccc(C(F)(F)F)cc1 [Leflunomide] |  |  |  |  |  |  |  |  | up to 10% of people
